The IC50 is the concentration that gives 50% inhibition.

Some results are limits rather than exact numbers.

The test system of one data set is CCRF-CEM. Briefly: Cytotoxicity against human CCRF-CEM cells assessed as inhibition of cell growth incubated for 72 hrs by resazurin assay. The class given is functional, cell-based. Background: Resazurin is reduced to fluorescent resorufin, in cell work by metabolically active cells.
Another data set deals with ADR5000 cell line. Briefly: Cytotoxicity against human CEM/ADR5000 cells overexpressing P-gp assessed as inhibition of cell growth incubated for 72 hrs by resazurin assay. Type of data set: functional, cell-based. The following applies: ADR5000, 72 h.
The nature of data set [1]: Resistance index, ratio of IC50 for cytotoxicity against human CEM/ADR5000 cells overexpressing P-gp to IC50 for cytotoxicity against human CCRF-CEM cells. Type of data set: functional.
Data set [2] is described as follows: Cytotoxicity against human PBMC assessed as cell viability at 100 uM incubated for 72 hrs by resazurin assay. Type of data set: toxicity, cell-based.

Turning to `COc1cc(C2c3ccc(O)cc3CCc3cc(O)cc(OC)c32)ccc1O` (stereo unspecified), the IC50 with CCRF-CEM was determined as 18.7 µM; in the data set with ADR5000 cell line, 17.2 µM. Also, the “Ratio IC50” value in data set [1] was found to be 0.9. Moreover, in data set [2], the Activity entry is reported as “Non-Toxic”.

`COc1cccc2c1C(=O)c1c(O)c3c(c(O)c1C2=O)C[C@@](O)(C(=O)CO)C[C@@H]3O[C@H]1C[C@H](N)[C@H](O)[C@H](C)O1` [DOXORUBICIN]: the “Ratio IC50” value in data set [1] was >1000.

As to `COc1cc(O)cc(CCc2cccc(O)c2)c1Cc1ccc(O)cc1`, the figures for the IC50 in the data set with CCRF-CEM and with ADR5000 cell line were 43.4 µM and 60.4 µM, respectively. The “Ratio IC50” value in data set [1] is 1.4. Besides, the Activity result in data set [2] is “Non-Toxic”.

Take `COc1cc(O)c(Cc2ccc(O)cc2)c2c1C(c1ccc(O)cc1)c1ccc(O)cc1CC2` (racemic): the half-inhibitory concentration (IC50) with CCRF-CEM was determined as 6.7 µM; with ADR5000 cell line it was 47.8 µM. In addition, the “Ratio IC50” value in data set [1] stood at 7.1. The Activity entry in data set [2] is “Non-Toxic”.

On to `COc1cc(O)cc2c1C(c1ccc(O)cc1)c1ccc(O)cc1CC2` (racemic), for which the IC50 with CCRF-CEM was 45.7 µM; with ADR5000 cell line it was > 100 µM. Further, in data set [2], the Activity entry is recorded as “Non-Toxic”.

For the origin of these results see ChEMBL document CHEMBL5226365, “Xylochemical Synthesis and Biological Evaluation of the Orchidaceous Natural Products Isoarundinin I, Bleochrin F, Blestanol K, and Pleionol” (J Nat Prod, 2023).
